Assay [1] relates to lipid vesicles 60% POPC:15% cholesterol:15% POPE:10% POPS. Kind of assay: Fluorescence anisotropy titration of NBD-labeled MARCKS peptides with lipid vesicles. The assay is classed as binding. The settings on record: FIG. 4D. The protocol: In another example, because fluorescence enhancement assays could not distinguish the contributions between different degrees of membrane penetration and binding affinity, fluorescence anisotropy assay was performed to specifically measure the binding affinity of the MARCKS derived peptides. The NBD-labeled peptides (1 μM) were titrated by synthetic liposomes of various sizes (30, 100, and 400 nm). Fluorescence anisotropy was recorded using a Fluorolog-3 fluorometer. The mixture was allowed to equilibrate for 2 minutes prior to the next titration. The excitation wavelength was set to λex=480 nm whereas the emission filter was set to λem=545 nm. The voltage was set to 250 V throughout the experiment. Blank PBS (pH=7.40) was titrated to NBD-labeled peptides as a negative control, where negligible anisotropy change was observed. The following equation was used to determine the dissociation constants as previously reported: Fb=Kp [L]/(1+KP[L]), where Fb expresses the fraction of peptide bound to lipids, Kp expresses the molar partition coefficient and [L] expresses the lipid concentration.
Lipid vesicles were titrated to NBD-labeled MARCKS-ED, MARCKSmut1, or MARCKSmut2 peptides. Since the peptide partitions between the hydrophobic lipid bilayer and the aqueous solvent, the molar partition coefficient is often reported. By definition, the apparent dissociation constant (Kd), described as the lipid concentration where 50% of the peptide is bound, is the reciprocal of the molar partition coefficient (Kp). Fluorescence anisotropy assay results indicated efficient curvature sensing by MARCKS-ED. FIG. 4C represents an exemplary fluorescence anisotropy titration of MARCKS-ED with various lipid vesicles. FIG. 4D provides data of fluoresence anisotropy titration of various MARCKS derived peptides. Lipid vesicles used in the experiments represented by FIGS. 4C-4D contained 60% POPC:15% cholesterol: 15% POPE: 10% POPS. […] As a comparison, C2AB illustrated a 1.9 fold increase in binding to smaller vesicles (105 nm) relative to the larger ones (252 nm). […] In addition, electrostatic interactions of MARCKSmut2 were also compromised. […] Such defects would permit the Phe residue to insert and stabilize the highly curved membranes.

In a further assay the test system is microvesicles in plasma. Kind of assay: Nanoparticle tracking analysis of microvesicles in plasma from stressed rats treated with MARCKS peptides. The assay is classed as binding, rat. The settings on record: Alexa Fluor 546 labeled peptides 55 nM. The method, then: These isolated microvesicles were measured by nanoparticle tracking analysis (NTA) to confirm their average size (ø=56 nm). Tracking analyses were performed using the NanoSight LM10-HS instrument (Amesbury, UK) equipped with a 532 nm laser and observed at scatter and fluorescence modes (filter=550 nm). The instrument was calibrated using commercially available 50 nm polystyrene beads. […] Alexa Fluor 546™-labeled mouse anti-rat CD63 and unconjugated Alexa Fluor 546™ were used as positive and negative controls, respectively. The profiles of MARCKS-ED-Alexa Fluor 546™ and Alexa Fluor 546™ in the absence of microvesicles were also investigated to confirm that these show negligible scatter and fluorescence background signals under identical NTA conditions.
FIG. 5A represents fluorescence enhancement assay with MARCKS-ED incubated with the isolated microvesicles. Peptide MARCKS-ED ([…]) not treated with microvesicles was used as a negative control. Annexin-V (a positive control) and MARCKS-ED were incubated with the isolated rat microvesicles. Fluorescence was normalized to the negative control. […] The diameter size and particle count of the isolated microvesicles detected by MARCKS-ED was further quantified. Nanoparticle tracking analysis (NTA) uses a laser for scatter and fluorescence modes to track small particles by Brownian motion, providing a robust method for detecting nano-sized microvesicles. Under the fluorescence mode with the emission filter set for the Alexa Fluor 546™, the particles that bound to MARCKS-ED, MARCKSmut1, and MARCKSmut2peptides were observed.
FIG. 5B illustrates the results of NTA of microvesicles treated with MARCKS derived peptides. […] The untreated plasma samples were detected using the scatter mode and treated samples were monitored by tracking the fluorescence of Alexa Fluor 546™ conjugated to the MARCKS-ED MARCKSmut1 and MARCKSmut2 peptides. […] Furthermore, blank samples were performed to rule out possible artifacts of background fluorescence from the peptides, the vesicles and the unconjugated dye.

Another assay deals with synthetic lipid vesicles. Nature of the assay: Fluorescence enhancement assay of NBD-labeled MARCKS peptides with synthetic vesicles. In kind it is binding. The conditions noted are these: FIG. 4B. The source says:
In another exemplary method, lipid vesicles were employed to the curvature-sensing behavior of the MARCKS derived peptides with various sizes and lipid components. The membrane curvature is defined as the reciprocal of the diameter of a particular particle, e.g., smaller-sized vesicles present highly curved membrane bilayers. A series of lipid models were made to represent various lipid components that closely resemble the lipid composition of biological membranes. […] Dynamic light scattering (DLS) and negative-stain transmission electron microscopy (TEM) were performed to confirm the different vesicle sizes following the pressure-controlled extrusion process through different membrane diameter pores. Commercial polystyrene beads were used as the calibration standard for the vesicle size validation experiments. Furthermore, a time-course experiment was carried out to confirm the stability of the vesicles up to 16 hours. Three different membrane diameters were extruded for the following biophysical characterizations: 30 nm, 100 nm, 400 nm, reflecting different membrane curvatures.
Next, a fluorescence enhancement assay was conducted to further quantify the curvature- and PS-sensing behavior of MARCKS-ED. Appropriate controls were performed to confirm that the fluorophore alone had no effect on the observed fluorescence enhancement (data not shown). FIG. 4 represents histogram data of fluorescence enhancement assay with and fluorescence anisotropy titration of the NBD labeled MARCKS derived peptides. Upon binding to lipid vesicles, the fluorescence intensity of NBD-MARCKS-ED increased due to vesicle binding and changes in the hydrophobic environment surrounding the fluorophore, concurring with a slight blue shift of the maximum emission wavelength. The emission spectra of all NBD-labeled peptides were recorded using a Fluorolog-3 fluorometer with λex=480 nm. The peptides and protein were tested at a concentration of 500 nM in PBS (pH 7.40) treated with 500 μM synthetic vesicles of different vesicles sizes. […] The positive control C2AB (200 nM) from the rat Synaptotagmin-1 (Syn-1) protein (G374, residues 96-421) was treated with CaCl2 (2.5 mM) and observed with λex of 275 nm and emission range of 300-450 nm. The untreated peptide and Ca^2+-C2AB samples were corrected by the PBS (pH=7.40) blank solution for the peptides and PBS with Ca^2+ for the Ca^2+-C2AB sample. All samples were prepared and incubated overnight in 4° C.
FIG. 4A illustrates a histogram plot of fluorescence intensity of MARCKS-ED treated with lipid vesicles of various sizes. […] Last, the fluorescence intensity differences were less significant with vesicles containing no PS. […]

For a further assay, the system named is isolated microvesicles. Nature of the assay: Fluorescence enhancement with isolated rat microvesicles. In kind it is binding. The protocol: In another exemplary method, having established the simultaneous curvature- and PS-sensing by MARCKS-ED in synthetic liposomes, MARCKS-ED was tested on detection of highly curved, PS-enriched particles in a complex biological system. Microvesicles (ø=0.03-1 μm) are highly curved lipid vesicles that shed into body fluids (e.g., blood, urine, ascitic fluid). These vesicles are released by cancerous cells in which lipid asymmetry is de-regulated, contributing to externalization and enrichment of PS on their outer leaflet. The microvesicle detecting ability of MARCKS-ED was investigated using plasma samples from a stressed rat model. […]
Microvesicles in these samples were characterized by TEM imaging, and ELISA of detection of the signature CD63 protein and the membrane transport protein Rab5b exposed on the surface. Particles expressing both proteins were captured by antibodies and quantified in a colorimetric endpoint assay.
These isolated microvesicles were measured by nanoparticle tracking analysis (NTA) to confirm their average size (ø=56 nm). Tracking analyses were performed using the NanoSight LM10-HS instrument (Amesbury, UK) equipped with a 532 nm laser and observed at scatter and fluorescence modes (filter=550 nm). […]
Monitored at λex=295 nm, Annexin-V (0.32 μM) was treated with CaCl2 (3 mM) in TES buffer and with 500 μM lipid vesicles of varying PS content. […]

Assay [2] concerns PS-exposing cell membranes. Nature of the assay: Fluorescence staining of PS-exposing membranes in dissected gonads of C. elegans. The assay is classed as in vivo. The settings on record: wild type (N2), tat-1(tm3117) and ced-7(n2094) animals. The protocol:
Fluorescence staining assays were carried out in an acceptible C. elegans model with PS-exposing cell membranes. […] NBD-MARCKS-ED was used to stain the dissected gonads of wild type (N2) animals, tat-1(tm3117) mutant animals, and engulfment-deficient ced-7 (n2094) mutant animals, respectively. 36 hour old hermaphrodite adult animals were collected and gently dissected by cutting their heads in a depression slide with a gonad dissection buffer (previously presented) to expose the gonads. The exposed gonads were then washed once in the dissection buffer and transferred to a dissection buffer containing 4 μM of Hoechst 33342 and 20 μM of NBD labeled MARCKS-ED peptide, 20 μM NBD-MARCKSmut1 peptide, or 10 nM Alexa Fluor 488-conjugated Annexin-V for 45 minutes. Gonads were washed one more time in the dissection buffer, placed on a 5% agarose pad, and visualized using a Nomarski microscope equipped with an epifluorescence detector.
FIGS. 6A-6C illustrate exemplary staining results using MARCKS derived peptides and Annexin V. PS is typically kept in the inner leaflet of plasma membranes in living cells and is exposed on the cell surface only under certain cellular events, i.e., when cells undergo apoptosis or lose the ability to maintain the PS asymmetry with a tat-1 gene mutation. FIG. 6A represents the staining results with labeled MARCKS-ED in wild type and mutants C. elegans. […] FIG. 6B represents the staining results with labeled MARCKSmut1 in wild type and mutants C. elegans. […] In FIGS. 6A-6B, nuclei were stained with Hoechst 33342. Annexin-V, a known PS-sensor, was also used to stain the gonads of tat-1 and ced-7 mutant C. elegans. […] Hoechst33342 (4 μM), FITC-AnnexinV (10 nM) and Nomarski images are shown. […] Scale bar=10 μm.

The next assay concerns 29 nm liposomes. The settings on record: with 29 nm liposomes; cited from earlier work.

We go through 5 substances from patent US20150093333A1, “COMPOSITIONS, METHODS AND USES FOR PEPTIDES IN DIAGNOSIS, PROGRESSION AND TREATMENT OF CANCERS” (THE REGENTS OF THE UNIVERSITY OF COLORADO, body corporate, priority 2003, published 2015).

In the case of “AAAAAAFSFAASFALSGFSFAANAA [MARCKSmut2, MARCKS-ED with positively charged residues (Lys, Arg) mutated to Ala]”, the binding affinity result in assay [1] is “compromised”. The “binding to microvesicles in whole plasma (NTA fluorescence mode)” value in the assay on microvesicles in plasma is “only negligible binding”. Also, the “fluorescence enhancement and curvature sensing” value in the assay on synthetic lipid vesicles is given as “significantly reduced fluorescence enhancement”.

With “Annexin-V: established PS-sensing protein, positive control [reference compound]”, in the assay on isolated microvesicles, the “binding to isolated microvesicles (fluorescence enhancement)” value is “Fluorescence enhancement was observed”. Further, the “staining of PS-exposed membranes” value in assay [2] was “germ cell corpses stained with both Hoechst and FITC-AnnexinV protein”.

For the substance “KKKKKRASAKKSAKLSGASAKKNKK [MARCKSmut1, MARCKS-ED with the five Phe residues mutated to Ala]”, the binding affinity entry in assay [1] is listed as “greatly reduced binding affinity”. Moreover, the “binding to microvesicles in whole plasma (NTA fluorescence mode)” value with microvesicles in plasma is reported as “some preferential binding to smaller vesicles but with much weaker fluorescence signal”. Also, the “fluorescence enhancement and curvature sensing” value in the assay on synthetic lipid vesicles was “significantly reduced fluorescence enhancement”. Besides, in assay [2], the “staining of PS-exposed membranes” value is on record as “did not appear to detect PS-exposed membranes in either tat-1 or ced-7 mutant animals”.

Take “Golgi-microtubule-associated protein-2101-38: ALPS motif-bearing established curvature-sensing protein fragment (MSSWLGGLGSGLGQSLGQVGGSLASLTGQISNFTKDML; UniProt Q15643 1-38, looked up, fragment)”: in the assay on 29 nm liposomes, the fluorescence enhancement is listed as about 1.25 RFU.

“nuclear pore complex protein-133245-267: ALPS motif-bearing established curvature-sensing protein fragment (LPQGQGMLSGIGRKVSSLFGILS; UniProt Q8WUM0 245-267, looked up, fragment)”: in the assay on 29 nm liposomes, the fluorescence enhancement was about 1.25 RFU.
